Source: US20070049593A1 (priority 2004, published 2007)
pIC50: −log10 of the molar value. Structures can show the parent of a compound that is named as a salt.

molecular target: T1, HCV polymerase (Hepatitis C virus genotype 1b, UniProt P26663); assay: biochemical; parameters: species or system HCV BK strain
T1 construct: a region encoding NS5B (J Virol 1991 March, 65(3), 1105-13, 544 amino acids after deletion of 47 amino acids on the C-terminal); 6xHis (C); made in house; host or cells: Escherichia coli
Method in brief: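 His-tagged NS5B (BK strain, 47-aa C-terminal deletion, E. coli-expressed) at 0.5 μg/ml copied 5 μg/ml run-off RNA bearing the HCV 3′ UTR with 2 μM UTP plus [3H]UTP, 50 μM ATP/GTP, in pH 7.5 Tris with 5 mM MgCl2, 25 °C, 90 min. TCA-precipitated RNA was counted and IC50 calculated.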

T1 sequence (P26663 2420-2963): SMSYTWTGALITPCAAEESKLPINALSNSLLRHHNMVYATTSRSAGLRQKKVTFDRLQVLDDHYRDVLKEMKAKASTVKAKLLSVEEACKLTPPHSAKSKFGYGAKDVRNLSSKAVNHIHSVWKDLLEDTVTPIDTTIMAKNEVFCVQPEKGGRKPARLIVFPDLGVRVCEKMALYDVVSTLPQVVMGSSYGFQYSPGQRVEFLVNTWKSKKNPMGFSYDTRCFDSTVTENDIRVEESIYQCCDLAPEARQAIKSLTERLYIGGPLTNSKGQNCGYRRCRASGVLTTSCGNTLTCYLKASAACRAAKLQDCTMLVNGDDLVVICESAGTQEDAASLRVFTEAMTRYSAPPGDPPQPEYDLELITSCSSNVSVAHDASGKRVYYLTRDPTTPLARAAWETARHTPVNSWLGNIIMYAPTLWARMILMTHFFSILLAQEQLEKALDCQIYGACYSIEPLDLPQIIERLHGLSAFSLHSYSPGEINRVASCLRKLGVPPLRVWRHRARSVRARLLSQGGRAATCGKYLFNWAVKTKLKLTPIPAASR

**Q.** With `CS(=O)(=O)Nc1ccc(N2CCOCC2)c(COc2ccc3c(c2)OCCn2c-3c(C3CCCCC3)c3ccc(C(=O)O)cc32)c1` [Example 2-17, 12-cyclohexyl-3-[5-methanesulfonylamino-2-(morpholin-4-yl)benzyloxy]-6,7-dihydro-5-oxa-7a-azadibenzo[a,e]azulene-9-carboxylic acid monohydrochloride] as the molecule, how does the pIC50 read?
**A.** > 7.00

**Q.** With `CC(=O)N(C)c1ccc(N2CCOCC2)c(COc2ccc3c(c2)OCCn2c-3c(C3CCCCC3)c3ccc(C(=O)O)cc32)c1` [Example 2-18, 3-[5-(N-acetyl-N-methylamino)-2-(morpholin-4-yl)benzyloxy]-12-cyclohexyl-6,7-dihydro-5-oxa-7a-azadibenzo[a,e]azulene-9-carboxylic acid monohydrochloride] as the molecule, how does the pIC50 read?
**A.** > 7.00

**Q.** How did the pIC50 turn out when `CN(c1ccc(N2CCOCC2)c(COc2ccc3c(c2)OCCn2c-3c(C3CCCCC3)c3ccc(C(=O)O)cc32)c1)S(C)(=O)=O` [Example 2-19, 12-cyclohexyl-3-[5-(N-methanesulfonyl-N-methylamino)-2-(morpholin-4-yl)benzyloxy]-6,7-dihydro-5-oxa-7a-azadibenzo[a,e]azulene-9-carboxylic acid monohydrochloride] was run?
**A.** > 7.00

**Q.** `O=C(O)c1ccc2c(C3CCCCC3)c3n(c2c1)CCOc1cc(Oc2ccccc2)ccc1-3` [Example 2-20, 12-cyclohexyl-3-phenoxy-6,7-dihydro-5-oxa-7a-azadibenzo[a,e]azulene-9-carboxylic acid] was tested. Which pIC50 did it give?
**A.** > 7.00

**Q.** `O=C(CN1CCOCC1)Nc1ccc(N2CCOCC2)c(COc2ccc3c(c2)OCCn2c-3c(C3CCCCC3)c3ccc(C(=O)O)cc32)c1` [Example 2-21, 12-cyclohexyl-3-{2-(morpholin-4-yl)-5-[2-(morpholin-4-yl)acetylamino]benzyloxy}-6,7-dihydro-5-oxa-7a-azadibenzo[a,e]azulene-9-carboxylic acid dihydrochloride] was tested. Which pIC50 did it give?
**A.** > 7.00

**Q.** `CN(C(=O)CN1CCOCC1)c1ccc(N2CCOCC2)c(COc2ccc3c(c2)OCCn2c-3c(C3CCCCC3)c3ccc(C(=O)O)cc32)c1` [Example 2-22, 12-cyclohexyl-3-[5-{N-methyl-N-[2-(morpholin-4-yl)acetyl]amino}-2-(morpholin-4-yl)benzyloxy]-6,7-dihydro-5-oxa-7a-azadibenzo[a,e]azulene-9-carboxylic acid dihydrochloride] was tested. Which pIC50 did it give?
**A.** > 7.00

**Q.** `CN(C)CC(=O)N(C)c1ccc(N2CCOCC2)c(COc2ccc3c(c2)OCCn2c-3c(C3CCCCC3)c3ccc(C(=O)O)cc32)c1` [Example 2-23, 12-cyclohexyl-3-(5-[N-(2-dimethylaminoacetyl)-N-methylamino]-2-(morpholin-4-yl)benzyloxy]-6,7-dihydro-5-oxa-7a-azadibenzo[a,e]azulene-9-carboxylic acid dihydrochloride] was tested. Which pIC50 did it give?
**A.** > 7.00

**Q.** How did the pIC50 turn out when `COC(=O)N1CCCC(Oc2ccc3c(c2)OCCn2c-3c(C3CCCCC3)c3ccc(C(=O)O)cc32)C1` (centres unmarked) [Example 2-24, 12-cyclohexyl-3-(1-methoxycarbonylpiperidin-3-yloxy)-6,7-dihydro-5-oxa-7a-azadibenzo[a,e]azulene-9-carboxylic acid] was run?
**A.** > 7.00

**Q.** How did the pIC50 turn out when `COc1ccc(Oc2ccc3c(c2)OCCn2c-3c(C3CCCCC3)c3ccc(C(=O)O)cc32)cc1` [Example 2-25, 12-cyclohexyl-3-(4-methoxyphenoxy)-6,7-dihydro-5-oxa-7a-azadibenzo[a,e]azulene-9-carboxylic acid] was run?
**A.** > 7.00

**Q.** `O=C(O)c1ccc2c(C3CCCCC3)c3n(c2c1)CCOc1cc(Oc2cccc(Cl)c2)ccc1-3` [Example 2-26, 3-(3-chlorophenoxy)-12-cyclohexyl-6,7-dihydro-5-oxa-7a-azadibenzo[a,e]azulene-9-carboxylic acid] was tested. Which pIC50 did it give?
**A.** > 7.00

**Q.** `CN(C)C(=O)CN1CCN(c2ccc(N3CCCC3=O)cc2COc2ccc3c(c2)OCCn2c-3c(C3CCCCC3)c3ccc(C(=O)O)cc32)CC1` [Example 2-27, 12-cyclohexyl-3-[2-(4-dimethylcarbamoylmethylpiperazin-1-yl)-5-(2-oxopyrrolidin-1-yl)benzyloxy]-6,7-dihydro-5-oxa-7a-azadibenzo[a,e]azulene-9-carboxylic acid dihydrochloride] was tested. Which pIC50 did it give?
**A.** > 7.00

**Q.** How did the pIC50 turn out when `CCN1CCN(c2ccc(N3CCCC3=O)cc2COc2ccc3c(c2)OCCn2c-3c(C3CCCCC3)c3ccc(C(=O)O)cc32)CC1` [Example 2-28, 12-cyclohexyl-3-[2-(4-ethylpiperazin-1-yl)-5-(2-oxopyrrolidin-1-yl)benzyloxy]-6,7-dihydro-5-oxa-7a-azadibenzo[a,e]azulene-9-carboxylic acid dihydrochloride] was run?
**A.** > 7.00

**Q.** How did the pIC50 turn out when `O=C(O)c1ccc2c(C3CCCCC3)c3n(c2c1)CCOc1cc(Oc2cccnc2)ccc1-3` [Example 2-29, 12-cyclohexyl-3-(pyridin-3-yloxy)-6,7-dihydro-5-oxa-7a-azadibenzo[a,e]azulene-9-carboxylic acid monohydrochloride] was run?
**A.** > 7.00

**Q.** How did the pIC50 turn out when `O=C(O)c1ccc2c(C3CCCCC3)c3n(c2c1)CCOc1cc(Oc2ccccc2Cl)ccc1-3` [Example 2-30, 3-(2-chlorophenoxy)-12-cyclohexyl-6,7-dihydro-5-oxa-7a-azadibenzo[a,e]azulene-9-carboxylic acid] was run?
**A.** > 7.00

**Q.** How did the pIC50 turn out when `O=C(O)c1ccc2c(C3CCCCC3)c3n(c2c1)CCOc1cc(Oc2ccc(Cl)cc2)ccc1-3` [Example 2-31, 3-(4-chlorophenoxy)-12-cyclohexyl-6,7-dihydro-5-oxa-7a-azadibenzo[a,e]azulene-9-carboxylic acid] was run?
**A.** > 7.00

**Q.** With `Cc1cc(COc2ccc3c(c2)OCCn2c-3c(C3CCCCC3)c3ccc(C(=O)O)cc32)no1` [Example 2-32, 12-cyclohexyl-3-(5-methylisoxazol-3-ylmethoxy)-6,7-dihydro-5-oxa-7a-azadibenzo[a,e]azulene-9-carboxylic acid] as the molecule, how does the pIC50 read?
**A.** > 7.00

**Q.** `CC(C)(C)OC(=O)NCCOc1ccc2c(c1)OCCn1c-2c(C2CCCCC2)c2ccc(C(=O)O)cc21` [Example 2-33, 3-[2-(tert-butoxycarbonylamino)ethoxy]-12-cyclohexyl-6,7-dihydro-5-oxa-7a-azadibenzo[a,e]azulene-9-carboxylic acid] was tested. Which pIC50 did it give?
**A.** > 7.00

**Q.** With `Cc1nc(COc2ccc3c(c2)OCCn2c-3c(C3CCCCC3)c3ccc(C(=O)O)cc32)cs1` [Example 2-34, 12-cyclohexyl-3-(2-methylthiazol-4-ylmethoxy)-6,7-dihydro-5-oxa-7a-azadibenzo[a,e]azulene-9-carboxylic acid] as the molecule, how does the pIC50 read?
**A.** > 7.00

**Q.** With `CC(C)(C)OC(=O)N1CCC[C@H]1COc1ccc2c(c1)OCCn1c-2c(C2CCCCC2)c2ccc(C(=O)O)cc21` [Example 2-35, 3-[(S)-1-(tert-butoxycarbonyl)pyrrolidin-2-ylmethoxy]-12-cyclohexyl-6,7-dihydro-5-oxa-7a-azadibenzo[a,e]azulene-9-carboxylic acid] as the molecule, how does the pIC50 read?
**A.** > 7.00

**Q.** How did the pIC50 turn out when `COC(=O)NCCOc1ccc2c(c1)OCCn1c-2c(C2CCCCC2)c2ccc(C(=O)O)cc21` [Example 2-36, 12-cyclohexyl-3-[2-(methoxycarbonylamino)ethoxy]-6,7-dihydro-5-oxa-7a-azadibenzo[a,e]azulene-9-carboxylic acid] was run?
**A.** > 7.00

**Q.** With `COC(=O)N1CCC[C@H]1COc1ccc2c(c1)OCCn1c-2c(C2CCCCC2)c2ccc(C(=O)O)cc21` [Example 2-37, 12-cyclohexyl-3-((S)-1-methoxycarbonylpyrrolidin-2-ylmethoxy)-6,7-dihydro-5-oxa-7a-azadibenzo[a,e]azulene-9-carboxylic acid] as the molecule, how does the pIC50 read?
**A.** > 7.00

**Q.** `O=C(O)c1ccc2c(C3CCCCC3)c3n(c2c1)CCOc1cc(OCCN2CCOC2=O)ccc1-3` [Example 2-38, 12-cyclohexyl-3-[2-(2-oxooxazolidin-3-yl)ethoxy]-6,7-dihydro-5-oxa-7a-azadibenzo[a,e]azulene-9-carboxylic acid] was tested. Which pIC50 did it give?
**A.** > 7.00

**Q.** How did the pIC50 turn out when `O=C(O)c1ccc2c(C3CCCCC3)c3n(c2c1)CCOc1c(OCc2ccccc2)cccc1-3` [Example 2-39, 4-benzyloxy-12-cyclohexyl-6,7-dihydro-5-oxa-7a-azadibenzo[a,e]azulene-9-carboxylic acid] was run?
**A.** > 7.00

**Q.** How did the pIC50 turn out when `CC(C)(C)OC(=O)N1CC[C@H](Oc2ccc3c(c2)OCCn2c-3c(C3CCCCC3)c3ccc(C(=O)O)cc32)C1` [Example 2-40, 3-[(S)-1-(tert-butoxycarbonyl)pyrrolidin-3-yloxy]-12-cyclohexyl-6,7-dihydro-5-oxa-7a-azadibenzo[a,e]azulene-9-carboxylic acid] was run?
**A.** > 7.00

**Q.** `CC(C)(C)OC(=O)N[C@H](COc1ccc2c(c1)OCCn1c-2c(C2CCCCC2)c2ccc(C(=O)O)cc21)Cc1ccccc1` [Example 2-41, 3-((S)-2-tert-butoxycarbonylamino-3-phenylpropoxy)-12-cyclohexyl-6,7-dihydro-5-oxa-7a-azadibenzo[a,e]azulene-9-carboxylic acid] was tested. Which pIC50 did it give?
**A.** > 7.00

**Q.** With `O=C(O)c1ccc2c(C3CCCCC3)c3n(c2c1)CCOc1cc(O[C@H]2CCNC2)ccc1-3` [Example 2-42, 12-cyclohexyl-3-((S)-pyrrolidin-3-yloxy)-6,7-dihydro-5-oxa-7a-azadibenzo[a,e]azulene-9-carboxylic acid monohydrochloride] as the molecule, how does the pIC50 read?
**A.** > 7.00

**Q.** `CC(C)[C@@H](COc1ccc2c(c1)OCCn1c-2c(C2CCCCC2)c2ccc(C(=O)O)cc21)NC(=O)OC(C)(C)C` [Example 2-43, 3-((S)-2-tert-butoxycarbonylamino-3-methylbutoxy)-12-cyclohexyl-6,7-dihydro-5-oxa-7a-azadibenzo[a,e]azulene-9-carboxylic acid] was tested. Which pIC50 did it give?
**A.** > 7.00

**Q.** `CS(=O)(=O)N1CCCC(Oc2ccc3c(c2)OCCn2c-3c(C3CCCCC3)c3ccc(C(=O)O)cc32)C1` (centres unmarked) [Example 2-44, 12-cyclohexyl-3-(1-methanesulfonylpiperidin-3-yloxy)-6,7-dihydro-5-oxa-7a-azadibenzo[a,e]azulene-9-carboxylic acid] was tested. Which pIC50 did it give?
**A.** > 7.00

**Q.** `CN1CCCCC1COc1ccc2c(c1)OCCn1c-2c(C2CCCCC2)c2ccc(C(=O)O)cc21` (centres unmarked) [Example 2-45, 12-cyclohexyl-3-(1-methylpiperidin-2-ylmethoxy)-6,7-dihydro-5-oxa-7a-azadibenzo[a,e]azulene-9-carboxylic acid] was tested. Which pIC50 did it give?
**A.** > 7.00
